The nature of one data set: in vitro. Particulars: pH 7.4, 1 μM, read-out: microsomal half-life. It counts as in vitro ADME. As for the experimental part:
The test compound at 1 μM was pre-incubated with pooled liver microsomes in phosphate buffer (pH 7.4) for 5 minutes in a 37° C. shaking water bath. The reaction was initiated by adding NADPH-generating mixture (NADP+, glucose-6-phospate, glucose-6-phosphate dehydrogenase) and incubated for 0, 15, 30, 45, and 60 minutes. The reaction was stopped by transferring aliquots of the incubation mixture to acetonitrile/methanol. Samples were centrifuged, and supernatants analyzed by LCMS. The half-life was calculated from the slope of the initial linear range of the logarithmic curve of compound remaining %) vs. time, assuming first order kinetics. In addition, the intrinsic clearance (Clint) was calculated from the half-life.

For a further data set, the system named is MRSADRL-3161. Nature of the data set: MIC panel (Laboratory Specialists, Inc.), MRSA. It counts as cell-based. Particulars: Staphylococcus aureus; Cmpd. 6; CLSI broth microdilution. On the technique in general: In broth dilution the organism is exposed to a series of concentrations in liquid medium.
The next data set deals with S. aureus DNA gyrase (Staphylococcus aureus, UniProt P20831). Nature of the data set: Inhibition of DNA gyrase, biochemical assay (Inspiralis). As to conditions: S. aureus DNA gyrase; Inspiralis, Ltd.; read-out: Gyrase IC50.
Sequence of S. aureus DNA gyrase (P0A0K8 whole entry): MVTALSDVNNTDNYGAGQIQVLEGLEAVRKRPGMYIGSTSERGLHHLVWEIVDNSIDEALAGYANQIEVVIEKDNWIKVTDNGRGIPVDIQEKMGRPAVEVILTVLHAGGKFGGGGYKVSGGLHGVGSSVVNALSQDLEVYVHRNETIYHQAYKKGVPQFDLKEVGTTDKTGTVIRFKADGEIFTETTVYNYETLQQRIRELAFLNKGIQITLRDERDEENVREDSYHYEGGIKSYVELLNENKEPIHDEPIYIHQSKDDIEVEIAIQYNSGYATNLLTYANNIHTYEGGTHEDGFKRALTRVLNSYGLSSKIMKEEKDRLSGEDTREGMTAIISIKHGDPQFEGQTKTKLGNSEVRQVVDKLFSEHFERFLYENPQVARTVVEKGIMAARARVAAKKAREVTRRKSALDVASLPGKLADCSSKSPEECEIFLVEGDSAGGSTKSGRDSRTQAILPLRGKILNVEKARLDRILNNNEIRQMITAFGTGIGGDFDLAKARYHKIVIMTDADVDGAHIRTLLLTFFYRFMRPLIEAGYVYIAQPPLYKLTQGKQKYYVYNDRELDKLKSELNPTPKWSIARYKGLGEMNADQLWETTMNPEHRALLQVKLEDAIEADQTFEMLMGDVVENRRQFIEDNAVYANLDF
Sequence of S. aureus DNA gyrase (P20831 whole entry): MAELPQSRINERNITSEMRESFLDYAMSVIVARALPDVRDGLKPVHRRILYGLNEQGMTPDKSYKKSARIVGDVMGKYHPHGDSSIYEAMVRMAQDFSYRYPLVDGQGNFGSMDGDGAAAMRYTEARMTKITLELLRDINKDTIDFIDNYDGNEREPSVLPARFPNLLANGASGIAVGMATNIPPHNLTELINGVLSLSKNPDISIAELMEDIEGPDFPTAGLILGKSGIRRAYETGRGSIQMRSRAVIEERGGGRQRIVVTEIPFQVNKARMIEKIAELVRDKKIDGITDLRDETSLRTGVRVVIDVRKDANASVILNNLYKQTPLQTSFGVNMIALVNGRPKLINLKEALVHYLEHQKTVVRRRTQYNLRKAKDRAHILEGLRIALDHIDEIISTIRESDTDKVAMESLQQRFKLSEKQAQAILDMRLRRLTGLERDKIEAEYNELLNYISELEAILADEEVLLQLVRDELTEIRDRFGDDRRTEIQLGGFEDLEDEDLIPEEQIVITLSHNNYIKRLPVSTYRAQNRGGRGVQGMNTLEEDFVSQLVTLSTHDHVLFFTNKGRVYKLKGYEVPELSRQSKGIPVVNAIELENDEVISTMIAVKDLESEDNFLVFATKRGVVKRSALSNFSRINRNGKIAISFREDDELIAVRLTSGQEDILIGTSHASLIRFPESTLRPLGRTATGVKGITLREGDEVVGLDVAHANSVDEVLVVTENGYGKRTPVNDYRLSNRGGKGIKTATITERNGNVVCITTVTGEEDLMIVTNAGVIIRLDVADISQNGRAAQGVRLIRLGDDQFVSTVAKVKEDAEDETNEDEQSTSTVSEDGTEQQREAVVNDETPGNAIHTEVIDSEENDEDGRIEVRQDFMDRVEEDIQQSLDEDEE
In data set [1] the test system is Streptococcus pyogenes LSI-1235. The experiment in a line: MIC panel (Laboratory Specialists, Inc.), S. pyogenes. It is filed as cell-based. Particulars: LSI1235, Cmpd. 6, CLSI broth microdilution.
The target of data set [2] is T1, hERG Human Potassium Ion Channel (Homo sapiens, UniProt Q12809).
T1 construct: expressed in transfected cells
T1 sequence (Q12809 whole entry): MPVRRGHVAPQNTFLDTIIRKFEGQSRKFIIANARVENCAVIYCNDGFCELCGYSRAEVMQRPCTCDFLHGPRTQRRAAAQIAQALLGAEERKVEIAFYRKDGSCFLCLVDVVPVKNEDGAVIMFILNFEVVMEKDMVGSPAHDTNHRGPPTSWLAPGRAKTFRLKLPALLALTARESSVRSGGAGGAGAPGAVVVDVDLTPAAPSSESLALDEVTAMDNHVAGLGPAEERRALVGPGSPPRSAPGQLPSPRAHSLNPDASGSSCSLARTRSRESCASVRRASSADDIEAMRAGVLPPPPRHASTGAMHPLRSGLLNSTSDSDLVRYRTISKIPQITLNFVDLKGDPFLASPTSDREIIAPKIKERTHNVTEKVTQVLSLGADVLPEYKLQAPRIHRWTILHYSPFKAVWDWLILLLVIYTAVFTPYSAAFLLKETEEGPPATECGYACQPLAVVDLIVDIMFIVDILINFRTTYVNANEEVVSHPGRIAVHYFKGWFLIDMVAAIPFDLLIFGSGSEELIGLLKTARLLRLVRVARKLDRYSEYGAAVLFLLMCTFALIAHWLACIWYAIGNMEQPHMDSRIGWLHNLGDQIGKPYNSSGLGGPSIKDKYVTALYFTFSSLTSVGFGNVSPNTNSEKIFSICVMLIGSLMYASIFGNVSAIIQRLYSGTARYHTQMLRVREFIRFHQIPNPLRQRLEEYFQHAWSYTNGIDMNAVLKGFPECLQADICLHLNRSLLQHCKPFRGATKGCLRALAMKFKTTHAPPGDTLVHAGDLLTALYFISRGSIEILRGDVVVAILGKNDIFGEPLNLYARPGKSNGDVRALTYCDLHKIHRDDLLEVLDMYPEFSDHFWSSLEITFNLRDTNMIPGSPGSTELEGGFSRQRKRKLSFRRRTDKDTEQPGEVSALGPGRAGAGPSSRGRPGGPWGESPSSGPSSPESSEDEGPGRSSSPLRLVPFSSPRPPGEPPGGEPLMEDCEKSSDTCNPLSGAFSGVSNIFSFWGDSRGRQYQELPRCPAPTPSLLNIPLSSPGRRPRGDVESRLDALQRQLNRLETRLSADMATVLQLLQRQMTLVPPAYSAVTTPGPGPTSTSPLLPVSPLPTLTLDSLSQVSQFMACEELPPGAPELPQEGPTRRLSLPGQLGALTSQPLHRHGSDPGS
The experiment in a line: hERG QPatch CiPA assay. Particulars: mean, duplicate. It counts as cell-based. An excerpt: (§1) Early drug discovery programs commonly assess hERG inhibition as the only indicator of potential cardiovascular safety concerns. Researchers have recently recommended a more rigorous evaluation of multiple cardiac ion channels to provide a more comprehensive cardiovascular risk assessment (Fermini, B., et al., A New Perspective in the Field of Cardiac Safety Testing through the Comprehensive In Vitro Proarrhythmia Assay Paradigm. J. Biomolec. Screening 2016, 21, 1-11). Given the promising initial results for 6, further evaluation was undertaken (in duplicate) in a Comprehensive in vitro Proarrhythmia Assay (CiPA) eight assay panel run on the QPatch HT (Sophion, Denmark) automated patch clamp system at three concentrations (3, 30, and 100 μM). All data were filtered for seal quality, seal drop, and current amplitude. A stock solution of the test compound at 30 mM concentration was prepared in DMSO.
The parameters measured were the maximum tail current evoked on stepping to 40 mV and ramping back to −80 mV from the test pulse. The peak current amplitude was calculated before and after compound addition and the amount of block was assessed by dividing the Test compound current amplitude by the Control current amplitude. Control is the mean hERG current amplitude collected 15 seconds at the end of the control; Test Compound is the mean hERG current amplitude collected in the presence of test compound at each concentration. The positive control was E-4031.
In general terms: The hERG channel carries a current that helps repolarise heart muscle cells.

The next data set has as its system USA300 isolate of MRSA. Nature of the data set: MIC, CLSI broth microdilution, USA300 MRSA. It counts as cell-based. Particulars: Staphylococcus aureus; CLSI broth microdilution; ciprofloxacin-resistant MRSA; read-out: MIC USA300.
Data set [3] relates to S. aureus strain isolated from a cystic fibrosis patient. The experiment in a line: MIC, CLSI broth microdilution, CF isolate. It counts as cell-based. As to conditions: Staphylococcus aureus; CLSI broth microdilution; read-out: MIC CF isolate.
Data set [4] concerns Pseudomonas aeruginosa LSI-2946. The experiment in a line: MIC panel (Laboratory Specialists, Inc.), P. aeruginosa. It is filed as cell-based. As to conditions: LSI2946, Cmpd. 6, CLSI broth microdilution.
For data set [5], the target named is T2, Kir2.1 Human Potassium Ion Channel (Homo sapiens, UniProt P63252).
T2 construct: expressed in transfected cells
T2 sequence (P63252 1-427): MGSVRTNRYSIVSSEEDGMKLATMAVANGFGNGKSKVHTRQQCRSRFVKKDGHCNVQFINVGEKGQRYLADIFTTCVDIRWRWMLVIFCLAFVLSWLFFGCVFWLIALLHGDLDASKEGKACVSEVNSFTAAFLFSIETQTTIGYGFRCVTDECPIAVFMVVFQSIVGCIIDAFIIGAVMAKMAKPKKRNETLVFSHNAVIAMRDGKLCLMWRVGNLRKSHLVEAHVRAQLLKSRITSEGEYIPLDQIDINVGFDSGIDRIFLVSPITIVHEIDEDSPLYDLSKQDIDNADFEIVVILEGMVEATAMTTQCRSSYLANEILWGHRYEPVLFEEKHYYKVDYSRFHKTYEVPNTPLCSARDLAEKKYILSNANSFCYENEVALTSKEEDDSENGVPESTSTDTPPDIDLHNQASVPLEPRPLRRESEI
The experiment in a line: Kir2.1 QPatch CiPA assay. Particulars: mean, duplicate. It counts as cell-based.
Source text: as §1
The parameters measured were the maximum inward current evoked on stepping to −120 mV from the test pulse. The peak current amplitude was calculated before and after compound addition and the amount of block was assessed by dividing the Test compound current amplitude by the Control current amplitude. Control is the mean hKir2.1 current amplitude collected 15 seconds at the end of the control; Test Compound is the mean hKir2.1 current amplitude peak and end collected in the presence of test compound at each concentration. The positive control was barium chloride.
A general note: The patch-clamp technique gives a direct electrical read-out from membranes.

A further data set relates to S. aureus ATCC 29213. It counts as cell-based, Staphylococcus aureus. Particulars: S. aureus ATCC 29213.
The next data set deals with 5-HT2B (Homo sapiens, UniProt P41595). The experiment in a line: Off-target safety panel, 5-HT2B. It is filed as binding. Particulars: duplicate, read-out: % Inhibition at 100 μM conc., 5-HT2B. As for the experimental part: Potential off-target pharmacology for compound 6 was also evaluated by screening in duplicate against a panel (Bowes, J., et al., Reducing Safety-Related Drug Attrition: The Use of in vitro Pharmacological Profiling. Nat. Rev. Drug Disc. 2012, 11, 909-922) of 44 receptors, enzymes, etc. Of the 44 potential targets, only five were inhibited by >50% at a concentration of 100 μM (Table 7).

Data set [6] concerns the target T3, Nav 1.5 Human Sodium Ion Channel (Homo sapiens, UniProt Q14524).
T3 construct: expressed in transfected cells
The experiment in a line: Nav 1.5 QPatch CiPA assay. It counts as cell-based. As to conditions: mean, duplicate.
Source text: as §1
The parameters measured were the maximum inward current evoked on stepping to −15 mV from the test pulse. The peak current amplitude was calculated before and after compound addition and the amount of block was assessed by dividing the Test compound current amplitude by the Control current amplitude. Control is the mean hNav1.5 current amplitude collected 15 seconds at the end of the control; Test Compound is the mean hNav1.5 current amplitude collected in the presence of test compound at each concentration. The positive control compound was tetracaine.

Setting [7] is: read-out: % Inhibition Kir2.1 (end current).
Where [8] appears, read: read-out: % Inhibition Kir2.1 (peak current).

In brackets after ≈: the same amount, converted by molar mass. Read-outs that look alike come from different tables or passages of the source. Bounds are passed on as bounds.

T3 sequence (Q14524 whole entry): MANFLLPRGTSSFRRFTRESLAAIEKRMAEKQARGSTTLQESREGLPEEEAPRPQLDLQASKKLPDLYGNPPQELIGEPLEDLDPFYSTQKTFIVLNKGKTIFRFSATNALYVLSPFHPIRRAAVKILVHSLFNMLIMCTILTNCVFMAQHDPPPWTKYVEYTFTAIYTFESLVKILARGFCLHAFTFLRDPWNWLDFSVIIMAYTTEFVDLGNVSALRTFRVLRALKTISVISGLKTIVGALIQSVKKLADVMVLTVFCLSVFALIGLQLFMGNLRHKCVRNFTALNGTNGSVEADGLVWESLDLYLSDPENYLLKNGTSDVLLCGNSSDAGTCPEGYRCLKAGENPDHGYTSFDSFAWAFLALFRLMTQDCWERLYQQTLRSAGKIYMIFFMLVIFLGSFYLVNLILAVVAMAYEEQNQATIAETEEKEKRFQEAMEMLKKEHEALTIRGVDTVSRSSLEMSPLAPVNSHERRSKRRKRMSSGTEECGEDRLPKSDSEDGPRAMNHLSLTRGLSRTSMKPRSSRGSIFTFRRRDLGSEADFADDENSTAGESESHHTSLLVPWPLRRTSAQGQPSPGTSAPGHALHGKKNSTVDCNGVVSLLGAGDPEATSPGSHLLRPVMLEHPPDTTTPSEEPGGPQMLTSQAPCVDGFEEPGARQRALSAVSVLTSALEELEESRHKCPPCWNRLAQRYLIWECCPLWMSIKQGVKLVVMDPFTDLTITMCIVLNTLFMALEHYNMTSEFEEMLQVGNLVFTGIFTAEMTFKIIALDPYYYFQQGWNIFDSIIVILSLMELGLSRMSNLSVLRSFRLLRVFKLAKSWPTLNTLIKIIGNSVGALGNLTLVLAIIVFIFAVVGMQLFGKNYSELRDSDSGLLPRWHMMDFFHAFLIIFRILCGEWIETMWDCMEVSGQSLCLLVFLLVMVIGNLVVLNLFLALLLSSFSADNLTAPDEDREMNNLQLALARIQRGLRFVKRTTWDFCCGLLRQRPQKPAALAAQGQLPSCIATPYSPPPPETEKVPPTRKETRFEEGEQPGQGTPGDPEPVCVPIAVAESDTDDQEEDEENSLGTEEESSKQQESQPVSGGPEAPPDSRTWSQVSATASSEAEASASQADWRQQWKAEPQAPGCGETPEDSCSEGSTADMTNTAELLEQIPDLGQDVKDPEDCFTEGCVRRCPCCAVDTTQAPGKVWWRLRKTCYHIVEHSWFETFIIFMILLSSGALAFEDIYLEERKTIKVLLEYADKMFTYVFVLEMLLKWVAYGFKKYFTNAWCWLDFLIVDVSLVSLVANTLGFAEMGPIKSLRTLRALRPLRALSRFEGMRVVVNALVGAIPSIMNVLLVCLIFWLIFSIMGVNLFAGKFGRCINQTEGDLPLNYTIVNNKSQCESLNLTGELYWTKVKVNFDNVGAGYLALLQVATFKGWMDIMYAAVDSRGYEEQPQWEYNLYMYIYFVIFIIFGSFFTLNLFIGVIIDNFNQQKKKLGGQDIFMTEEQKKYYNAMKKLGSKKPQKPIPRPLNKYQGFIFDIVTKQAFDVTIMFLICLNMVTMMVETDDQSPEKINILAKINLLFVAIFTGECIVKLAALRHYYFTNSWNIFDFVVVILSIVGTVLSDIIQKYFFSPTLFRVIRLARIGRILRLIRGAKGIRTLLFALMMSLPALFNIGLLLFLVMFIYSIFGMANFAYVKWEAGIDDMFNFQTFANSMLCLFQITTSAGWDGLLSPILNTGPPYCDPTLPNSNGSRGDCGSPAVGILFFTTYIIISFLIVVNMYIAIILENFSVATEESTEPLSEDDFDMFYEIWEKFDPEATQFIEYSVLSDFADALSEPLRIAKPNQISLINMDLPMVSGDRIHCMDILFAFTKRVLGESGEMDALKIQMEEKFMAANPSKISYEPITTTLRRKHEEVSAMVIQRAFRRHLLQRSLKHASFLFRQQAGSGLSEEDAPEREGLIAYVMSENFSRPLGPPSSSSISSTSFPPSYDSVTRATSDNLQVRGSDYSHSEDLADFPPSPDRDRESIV

As for `COc1ccc2ncc(F)c(CC[C@@]3(O)CO[C@@H]4[C@@H](NCc5cc6c(cn5)OCCO6)CO[C@@H]43)c2n1` [Compound 6, (3R, 3aS,6S,6aR)-6-(((2,3-dihydro-[1,4]dioxino[2,36-c]pyridin-7-yl)methyl)amnino)-3-(2-(3-fluoro-6-methoxy-1,5-naphthyridin-4-yl)ethyl)hexahydrofuro[3,2-b]furan-3-ol], the half-life (commonly how long it takes for the measured level to halve) in the data set “in vitro” (human microsomes) worked out at 6 min; in the data set “in vitro” (mouse microsomes) it was 3 min. Moreover, the MIC (in general, the lowest concentration found to suppress growth) against MRSADRL-3161 was 1 µg/mL (≈ 2.01 µM); in data set [1], not above 0.12 µg/mL; with USA300 isolate of MRSA, 2 µg/mL (≈ 4.01 µM); in data set [3] it was 2 µg/mL (≈ 4.01 µM); in data set [4], not above 0.12 µg/mL. Further, the IC50 – broadly, the midpoint of a concentration-inhibition curve – at S. aureus DNA gyrase came to 530 nM. In addition, the “% Inhibition hERG (tail current)” value in [2] (3 μM) is −2.4%; in data set [2] (30 μM), 11.3%; in data set [2] (100 μM), 39.0%. Besides, the results for the inhibition at 3 µM in data set [5] (setting [7]) and in [5] (setting [8]) were 8.3% and 6.9%, respectively. In addition, the inhibition (usually the relative decrease from the control value, in per cent) at 30 µM in data set [5] (setting [7]) amounted to 19.6%; in data set [5] (setting [8]), 18%. Also, the inhibition at 100 µM came to 31.9% in data set [5] (setting [7]), 29.7% in [5] (setting [8]) and 95% at 5-HT2B. In addition, the “Spontaneous mutation frequency (8X MIC)” value in the data set on S. aureus ATCC 29213 (8X agar dilution MIC) is on record as 7.89 × 10^−8 (n = 1). In addition, the “Spontaneous mutation frequency (16X MIC)” value in the data set with S. aureus ATCC 29213 (16X agar dilution MIC) is recorded as 1.57 × 10^−9 (n = 1). Besides, the “% Inhibition Nav1.5 (peak current)” value in data set [6] (3 μM) amounted to 6.1%; in data set [6] (30 μM) it was 16.7%; in data set [6] (100 μM), 21.1%.

Values taken from patent publication US20230097866A1, “BACTERIAL TOPOISOMERASE INHIBITORS DERIVED FROM ISOMANNIDE” (Ohio State Innovation Foundation, priority 2020, published 2023).
